Read-outs that look alike come from different tables or passages of the source.

The conditions of data set [1]: rats; for Molar percentage of the excreted metabolites in 24-h urine (% of infused [D3]bromotyrosine) / Total amounts (nmole) excreted in 24-h urine: intraperitoneal injection of 500 nmole [D3]bromotyrosine. As to the method:
^13C-Labeled internal standard (5 ng) was added to 20 µl of rat urine and diluted to 1 ml of total volume with 0.1 % (v/v) TFA/water (pH 5.0). The samples were extracted using LC18 reverse phase column, as described above. Bromotyrosine and tyrosine were derivatized with ethyl heptafluorobutyrate and silylated with tert-butyldimethylsilyl, as described, [17], [18]. Derivatized samples were dried under nitrogen, and redissolved in 20 µl of n-undecane. Samples were applied to a GC equipped with a 15-m DB-1701 (J&W Scientific, Folsom, CA) capillary column (0.25-mm internal diameter, […]), interfaced with a mass spectrometer (Trio 1000; Fisons Instruments, Beverly, MA). The ion source and interface temperatures were set at 200 and 320 °C, respectively. Samples were analyzed in negative-ion chemical ionization mode with ammonia as the reagent gas, using 1 µl of each sample for injection. The initial column temperature was maintained at 150 °C for 1 min increasing to 300 °C at 20 °C/min. Ions were monitored at 489, 492, and 498 mass units for authentic, [D3] and [^13C9]bromotyrosine, respectively (Table 1). For measurement of tyrosine, samples were monitored at 407, 410 and 415 m/z for authentic, [D3]tyrosine and [^13C9]tyrosine, respectively. Concentrations were calculated by ratio to known ^13C9-labeled internal standards.
^13C-Labeled internal standard (5 ng) was added to 20 µl of rat urine and diluted to 1 ml with 0.1 % (v/v) TFA/water (pH 5.0). The samples were extracted using LC18 reverse-phase column as described above. The samples were derivatized to the pentafluorobenzyl ester by the addition of 20 µl of di-isopropyl ethylamine in acetonitrile and […] of 10 % (v/v) pentafluorobenzyl bromide in acetonitrile for 1 h at room temperature (21–23 °C), dried under nitrogen, and redissolved in […] of n-undecane for GC/MS analysis, [14]. The GC/MS set up was as described above, and ions were monitored at 409, 412, and 417 mass units for authentic, [D3] and [^13C8]bromo-HPA, respectively, with single-ion monitoring (Table 1). For measuring HPA, samples were monitored at 331, 334, and 339 mass units for authentic, [D3] and [^13C8]HPA, respectively. The concentrations were calculated from the known ^13C8-labeled internal standards.
Male Sprague-Dawley rats (n=3 in each group) were given a single intraperitoneal injection of [D3]bromotyrosine (0.50 µmol). The animals were then transferred to standard metabolic cages, and urine samples were collected for 24 h. The levels of deuterated bromotyrosine, tyrosine, bromo-HPA, and HPA were measured in the collected urine samples, as described above.

Details of data set [2]: method as in PMID 17686770. Conditions: deuterium-labeled metabolites after infusion of deuterium-labeled chlorotyrosine ref 9; cited from earlier work.
The subject of a further data set is HepG2 cells. Conditions: 24 h with 250 nmoles [D3]bromotyrosine (25 µM, 10 ml).
Data set [3] concerns the target T1, Iodotyrosine dehalogenase 1 (DEHAL1) (Homo sapiens, UniProt Q6PHW0).
T1 construct: made in house; host or cells: HEK293 cells transfected with DEHAL1 cDNA in pcDNA3.1; used as cell lysate
T1 sequence (Q6PHW0 1-289): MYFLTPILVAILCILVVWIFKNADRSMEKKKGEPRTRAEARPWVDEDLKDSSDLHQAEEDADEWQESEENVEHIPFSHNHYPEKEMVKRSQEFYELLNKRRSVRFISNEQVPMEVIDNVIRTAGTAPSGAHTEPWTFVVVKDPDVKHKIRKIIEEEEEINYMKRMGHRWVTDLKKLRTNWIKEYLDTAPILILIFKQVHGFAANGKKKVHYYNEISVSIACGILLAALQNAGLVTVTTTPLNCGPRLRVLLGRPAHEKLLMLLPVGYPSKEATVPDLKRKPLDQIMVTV
More on the design: method as in PMID 17686770. Conditions: previous report ref 9; cited from earlier work.

Data set [4] has as its target T1, Iodotyrosine dehalogenase 1 (DEHAL1). Description: Dehalogenation of halogenated tyrosines as substrates of DEHAL1 (HPLC). Type of data set: biochemical. Particulars: for Substrate converted by DEHAL1: substrate 1 μM, NADPH 100 μM, dithiothreitol 10 mM; for Substrate converted by DEHAL1 / Formation of mono-halogenated tyrosine as product of de-halogenation of the di-halogenated substrate by DEHAL1: 60 min at 37 °C; for Formation of mono-halogenated tyrosine as product of de-halogenation of the di-halogenated substrate by DEHAL1: di-iodotyrosine or di-bromotyrosine 1 μM as substrate. On the procedure: (§1) Iodotyrosine dehalogenase 1 (DEHAL1) was obtained from HEK293 cells transfected with DEHAL1 cDNA, using a pcDNA3.1 expression vector [9], [19]. To determine whether bromotyrosine, di-bromotyrosine or bromo-HPA interact with iodotyrosine dehalogenase, deiodinase activity was measured based on radioiodide formation from [125I]iodotyrosine. Incubation mixtures contained [125I]iodotyrosine (∼100,000 cpm mixed with 0.1 μM unlabeled iodotyrosine), DEHAL1 enzyme, and varying amounts of iodotyrosine, bromotyrosine, di-bromotyrosine, bromp-HPA and tyrosine (0.01–100 μM final concentration) in 100 μl of PBS containing NADPH (100 μM), EDTA (2 mM), and dithiothreitol (10 mM), [19]. Mixtures were incubated in duplicate for 60 min at 37 °C, and the reactions were stopped by addition of 0.9 ml of 10% acetic acid on ice. The radioiodide in the mixture was separated from the remaining [125I]iodotyrosine with ion exchange chromatography on Dowex columns. The columns were washed with 10 % acetic acid and eluted with 8 ml of 1 mM ammonia solution. Blank incubations without enzyme were used to correct for non-enzymatic deiodination. To determine whether bromotyrosine or di-bromotyrosine could act as a substrate of DEHAL1, the brominated or iodinated tyrosine derivatives (1 μM) were incubated with DEHAL1 in 100 μl of PBS containing NADPH (100 μM), EDTA (2 mM), and dithiothreitol (10 mM). Mixtures were then incubated in duplicate for 60 min at 37 °C, and the reaction was stopped by addition of 1 ml of 10 % acetic acid on ice. Substrate levels were measured using HPLC as described. Cell lysates from HEK293 cells transfected with empty pcDNA3.1 plasmid were used as control. In experiments where di-bromotyrosine, or di-iodotyrosine was used as substrate, concentrations of mono-bromotyrosine and mono-iodotyrosine were measured as a product of de-halogenation.

The target is the same in data set [5]. Description: Inhibition of DEHAL1 deiodinase activity (radioiodide formation from [125I]iodotyrosine). Format: biochemical. Particulars: 0.01–100 μM, 60 min at 37 °C, NADPH, dithiothreitol. On the procedure:
as §1

A short description of data set [6]: Incubation of bromo-HPA with rat liver homogenates. Type of data set: in vitro ADME. Particulars: data not shown.
The nature of data set [7]: Endogenous bromination of HPA: urine monitoring after intraperitoneal [D6]HPA. Type of data set: in vivo. Conditions: healthy rats, intraperitoneal injection of [D6]HPA, data not shown. From the text:
It is not known, whether or not, bromo-HPA is exclusively derived from the metabolism of bromotyrosine. […] Such reaction may occur for bromotyrosine as well, and needs to be explored in future investigations. Likewise, we previously reported that nitro-HPA is not exclusively derived from nitrotyrosine metabolism, and it is mainly formed by nitration of HPA in both humans and rats, [29]. To determine whether or not bromo-HPA could be formed by endogenous bromination of HPA in healthy rats, deuterium-labeled HPA ([D6]HPA) was synthesized and injected into healthy rats as described. The formation of deuterated bromo-HPA was then monitored in urine samples.

The nature of data set [8]: Identification of urinary metabolites of di-bromotyrosine in vivo (full scan GC/MS). Further details: species or system Sprague-Dawley rats. Particulars: rats, intraperitoneal 30 µmol, 24 h urine, compared with tyrosine injected animals. As to the method: A similar method used by Ohshima et al. was used for identification of urinary metabolites of di-bromotyrosine. […] Urine was collected in metabolic cages for 24 h. Urine samples were acidified to pH 1.0 with HCl and extracted with an equivalent volume of ethyl acetate.

Experimental for HepG2 cells: HepG2 cells (ECACC, Wiltshire, UK) were maintained in MEM (minimum Eagle's medium) supplemented with 10% fetal calf serum. Monolayer HepG2 cells were plated in 175 cm^3 vented tissue culture flasks until 70% confluent, when they were incubated with [D3]bromotyrosine (final concentration 25 µM). 24 h after incubation with [D3]bromotyrosine, cells were washed two times with PBS and were detached from the flask using a cell scraper. Detached cells were washed and re-suspended in 2 ml of PBS. Cell suspensions were subjected to protein precipitation by adding 1 ml of ice-cold chloroform/methanol (2:1, v/v) solution. After centrifugation (1000×g for 20 min), protein precipitates were washed with methanol and lyophilized under vacuum for assessment of protein-bound [D3]bromotyrosine and [D3]tyrosine as described [9], [17], [18]. […] The samples were then derivatized with ethyl heptafluorobutyrate and silylated with tert-butyldimethylsilyl, and monitored for ion masses of 492, 498, 410, 415 for [D3]bromotyrosine, [^13C9]bromotyrosine, [D3]tyrosine and [^13C9]tyrosine, respectively (Table 1) using negative-ion chemical ionization GC/MS [9], [17], [18]. […] All data are expressed as mean±standard error.

Regarding `O=C(O)Cc1ccc(O)cc1` [HPA, 4-hydroxyphenylacetic acid], the “Urinary excretion rate relative to un-metabolized bromotyrosine” value in data set [1] (deuterium-labeled metabolites, 500 nmole [D3]bromotyrosine) stood at 10.7 fold. In addition, the “Urinary excretion rate relative to un-metabolized chlorotyrosine” value in data set [2] is on record as 35.6 fold.
As to `[2H]c1cc(O)c([2H])c([2H])c1CC(=O)O` [[D3]HPA, [D3]4-hydroxyphenylacetic acid], the results for the “Molar percentage of the excreted metabolites in 24-h urine (% of infused [D3]bromotyrosine)” value in data set [1] and in data set [1] (listed as [D3]4-hydroxyphenylacetic acid) were 1.33±0.26% and ~ 1.3%, respectively. In data set [1], the “Total amounts (nmole) excreted in 24-h urine” value (“Total amounts (nmole) excreted” for short) was found to be 6.66 ± 1.33 nmol.
As for [D3]tyrosine, the “[D3]tyrosine detectable in cellular proteins” value in the data set with HepG2 cells amounted to 6.68 ± 0.52 nmol. In addition, in data set [1], the “Molar percentage of the excreted metabolites in 24-h urine (% of infused [D3]bromotyrosine)” value is “Undetectable” and the “Total amounts (nmole) excreted” value is “Undetectable”.
Turning to `N[C@@H](Cc1ccc(O)c(Cl)c1)C(=O)O` [chlorotyrosine, 3-chlorotyrosine], the “De-chlorination by DEHAL1 in vitro” value in data set [3] is reported as “unable to show a significant de-chlorination”.
In the case of `O=C(O)Cc1ccc(O)c(Cl)c1` [chloro-HPA, 3-chloro-4-hydroxyphenylacetic acid], the “Urinary excretion rate relative to un-metabolized chlorotyrosine” value in data set [2] is listed as 3.3 fold.
Turning to `N[C@@H](Cc1cc(I)c(O)c(I)c1)C(=O)O` [di-iodotyrosine, reference compound], the “Substrate converted by DEHAL1” value in [4] worked out at 70%.
As for `N[C@@H](Cc1ccc(O)c(Br)c1)C(=O)O` [bromotyrosine, 3-bromotyrosine], in [5], the “Inhibition of DEHAL1-induced deiodinase activity” value (shortened to “Inhibition”) was “could inhibit DEHAL1-induced deiodinase activity in a concentration-dependent manner”. Also, in data set [4], the “Formation of mono-halogenated tyrosine as product of de-halogenation of the di-halogenated substrate by DEHAL1” value stood at 3% and the “Substrate converted by DEHAL1” value is 18%.
As for `O=C(O)Cc1ccc(O)c(Br)c1` [bromo-HPA, 3-bromo-4-hydroxyphenylacetic acid], in data set [6], the “Formation of de-brominated products on incubation with rat liver homogenates” value is listed as “not associated with formation of de-brominated products”. The “Inhibition” value in data set [5] is “Neither tyrosine nor bromo-HPA showed the ability to inhibit deiodination”. Further, the “Formation of de-brominated products on incubation with DEHAL1” value in data set [4] (data not shown) is given as “not associated with formation of de-brominated products”.
On to [D5]bromo-HPA, for which the “Detection of deuterated bromo-HPA in urine” value in [7] was “unable to detect”.
Consider “deuterated 3-bromo-4-hydroxyphenylacetic acid [[D3]Bromo-HPA]”, for which, in data set [1], the “Molar percentage of the excreted metabolites in 24-h urine (% of infused [D3]bromotyrosine)” value is recorded as 0.43±0.04% and the “Total amounts (nmole) excreted” value was 2.15 ± 0.21 nmol. In addition, in data set [1] (listed as [D3]bromo-HPA), the “Molar percentage of the excreted metabolites in 24-h urine (% of infused [D3]bromotyrosine)” value amounted to 0.43±0.04%.
Consider `N[C@@H](Cc1ccc(O)cc1)C(=O)O` [tyrosine], for which the “Inhibition” value in data set [5] is recorded as “Neither tyrosine nor bromo-HPA showed the ability to inhibit deiodination”.
Take `N[C@@H](Cc1ccc(O)c(I)c1)C(=O)O` [iodotyrosine, reference compound]: in data set [4], the “Formation of mono-halogenated tyrosine as product of de-halogenation of the di-halogenated substrate by DEHAL1” value is 7% and the “Substrate converted by DEHAL1” value was 83%.
Regarding `N[C@@H](Cc1cc(Br)c(O)c(Br)c1)C(=O)O` [di-bromotyrosine, 3,5-di-bromotyrosine], in [8], the Urinary metabolites identified result is “di-bromo-HPA and mono-bromo-HPA”. Besides, the “Inhibition” value in [5] was “could inhibit DEHAL1-induced deiodinase activity in a concentration-dependent manner”. In data set [4], the “Substrate converted by DEHAL1” value is given as 4%.

The values above are taken from paper PMC4708624, “The metabolism and de-bromination of bromotyrosine in vivo” (Free Radical Biology & Medicine, 2016).
